Read-outs that look alike come from different tables or passages of the source.
Assays:
CaV1.2 channels [1] = tested on: CaV1.2 channels
Procedure: Membrane currents from isolated mouse ventricular cardiomyocytes (O'Connell et al. 2007) were measured by the whole-cell patch-clamp method using a MultiClamp 700B amplifier and pCLAMP 10 software (Molecular Devices) as described (Yang et al. 2013). The pipette solution contained (in mM): 40 CsCl, 90 Cs gluconate, 10 BAPTA, 1 MgCl2, 4 Mg-ATP, 2 CaCl2, and 10 HEPES, adjusted to pH 7.2 with CsOH. After the isolated cardiomyocytes were adequately buffered with 10 mM BAPTA in the internal solution, the isolated cardiomyocytes were superfused with (in mM): 140 TEA-CI, 1.8 CaCl2, 1 MgCl2, 10 glucose, and 10 HEPES, adjusted to pH 7.4 with CsOH. For experiments in tsA-201 cells, TEA-CI was reduced to 130 mM, and BaCl2 (10 mM) was used instead of CaCl2. Pipette series resistances were usually <1 MΩ after 60% compensation. Leak currents and capacitance transients were subtracted by a P/4 protocol. Voltages were corrected for the liquid junction potential of −10 mV. To measure Ca^2+ peak currents, the cell membrane potential was held at −50 mV and stepped to +10 mV for 350 ms every 10 seconds. To evaluate the current-voltage (I-V) relationship for Ca^2+ currents, the same protocol was repeated with steps between −50 mV to +50 mV in 10 mV increments. All experiments were performed at room temperature, 22±1° C. The parameters of voltage-dependent activation were obtained using a modified Boltzmann distribution: I(V)=Gmax*(V−Erev)/[1+exp(Vmid−V)/Vc)], where I(V) is peak current, Gmax is maximal conductance, Erev is reversal potential, Vmid is the midpoint, and Vc is the slope factor.
We next determined the sensitivity of CaV1.2 channels containing either transgenic pWT α1C or AID-mutant α1C to PKA modulation.

CaV1.2 channels [2] = assay: Whole-cell Ba2+ currents of adenovirus-infected cultured guinea pig ventricular myocytes; type: cell-based; details: control cells expressing GFP or YFP-tagged mutant (YWI/AAA) AID peptide; 1 μM forskolin
From the text: Replication deficient adenoviral vectors expressing AID-YFP and AIDmut-YFP were generated using the AdEasy Adenoviral Vector System (Agilent Technologies) according to the manufacturer's instructions. Briefly, sequences for AID-YFP and AIDmut-YFP were PCR-amplified and cloned into pShuttle-CMV vector. After linearization with PmeI, shuttle vectors were electroporated into BJ5183 cells containing pAdEasy-1 viral plasmid. Positive recombinants were amplified, linearized with Pac I, and transfected into AD-293 cells using the calcium phosphate precipitation method. Transfected cells were monitored for development of adenoviral plaques, after which the cells were freeze-thawed and the lysate used to infect a 10-cm dish of 90% confluent HEK293 cells. Viral expansion and purification was carried out as previously described (Colecraft et al. 2002).
Adult guinea pig ventricular myocytes were isolated by enzymatic digestion using a Langendorff perfusion apparatuses, and cultured as previously described (Miriyala et al. 2008). […] Heart cells were infected 2-3 hours after plating with 5-20 μl of adenoviral vector stock (≅10^11-10^12 viral particles/ml).
Whole-cell recordings of virally-infected cultured guinea pig ventricular myocytes were conducted at room temperature as previously described (Miriyala et al. 2008; Xu et al. 2010). […]

CaV1.2 channels [3] = details: Katchman et al. 2017; cited from earlier work
isolated cardiomyocytes = assay: Fractional shortening (sarcomere length) of field-stimulated isolated cardiomyocytes; type: cell-based, mouse; details: for increase in fractional shortening: 200 nM isoproterenol with 300 nM nisoldipine, 1-Hz
Procedure: Myocytes were field stimulated at 1-Hz. Percent contraction of sarcomere length was measured using the SarcLen module of Ionoptix and calculated as the difference of shortest sarcomere length during a contraction subtracted from the relaxed sarcomere length, divided by the relaxed sarcomere length, all averaged over at least 8 contractions.
We next exploited the findings that transgenic β-less AID-mutant α1C channels are insensitive to PKA modulation to probe the specific role of CaV1.2 modulation in the positive inotropic effect of β-adrenergic agonists in both isolated cardiomyocytes and in the whole heart. […] By contrast, this response was severely diminished in cardiomyocytes expressing transgenic β-less AID-mutant α1C channels in which isoproterenol produced a relatively meager 25% increase in fractional shortening (FIG. 10B and FIG. 10C).

[4] = tested on: left ventricular contraction in isolated Langendorff-perfused hearts; assay: Ex vivo cardiac contractility, Langendorff-perfused hearts with left ventricular balloon; set-up: species or system mouse; details: for increase in contractility in response to isoproterenol: native CaV1.2 first inhibited with nisoldipine; for increase in cardiac contractility: 200 nM isoproterenol with 300 nM nisoldipine, paced at 400 beats per minute
Procedure: Hearts from these mice are isolated and contractility is assessed by placing a balloon in the left ventricle.
The cannulated hearts were retrogradely perfused on a Langendorff system with a modified Krebs solution (118.5 mM NaCl, 25 mM NaHCO3, 4.7 mM KCl, 1.2 mM MgSO4, 1.2 mM KH2PO4, 11 mM glucose, 1.8 mM Ca^2+). Left ventricular pressure was measured using a balloon catheter connected to an APT-300 pressure transducer, which was connected to a Powerlab digitizer (ADInstruments). […] Peak LV pressure during the 3-minute period was used for the assessment of β-adrenergic agonist stimulation.
We then assessed the role of CaV1.2 modulation in β-adrenergic agonist-induced positive inotropy at the whole organ level by inserting a pressure-transduced balloon into the left ventricle of Langendorff-perfused transgenic mice hearts. This approach enabled measurement of cardiac contractility independent of vascular or systemic effects. Hearts were paced at 400 beats per minute to remove the potentially confounding effect of heart rate variability on contractility (Kushnir et al. 2014). […] By contrast, using the same experimental paradigm in hearts from β-less AID-mutant transgenic mice, the response to isoproterenol was nearly abolished, yielding an average increase in cardiac contractility of only 1.2-fold (FIG. 10H and FIG. 10I).

phospholamban = assay: Immunoblot of phospholamban Ser16 phosphorylation in cardiomyocytes; type: cell-based, mouse; details: AID-mutant transgenic mice cardiomyocytes; 200 nM isoproterenol
Procedure: Cells were exposed to 200 nM isoproterenol. Protein extracts were size-fractionated on SDS-PAGE, transferred to nitrocellulose and blotted with anti-pSer16 phospho-specific antibody (upper blot), and anti-PLB antibody (lower blot). Representative of three similar experiments.
Cardiac lysates from 6-12-week-old doxycycline-fed transgenic mice were prepared from either whole hearts or isolated ventricular cardiomyocytes (Yang et al. 2013). Immunoprecipitations were performed in modified RIPA buffer consisting of 50 mM Tris HCl; pH 7.4, 150 mM NaCl, Triton X-100 (0.25%), 10 mM EDTA, 10 mM EGTA, 10 μM Calpain inhibitor I, 10 μM Calpain inhibitor II, and Complete Mini-tablets (1 per 7 ml), using anti-FLAG antibody (Sigma) overnight. Immune complexes were collected using protein A (Amersham) for 2 h, followed by extensive washing. Proteins were size-fractionated, transferred to nitrocellulose membranes and probed with anti-FLAG antibody (Sigma), anti-tubulin antibody (Santa Cruz), custom anti-α1C and anti-β2 antibodies (Yang et al. 2013), and phospholamban antibodies (Badrilla). Detection was performed with a CCD camera (Carestream Imaging), and ImageQuant software was used for quantification. […]

C=C[C@@]1(C)CC(=O)[C@]2(O)[C@@]3(C)[C@@H](O)CCC(C)(C)[C@@H]3[C@H](O)[C@H](OC(C)=O)[C@@]2(C)O1 [forskolin]
increase of transgenic pWT α1C Ca2+ currents (CaV1.2 channels [1]; transgenic pWT α1C cardiomyocytes, 10 μM forskolin, 300 nM nisoldipine): 1.8+0.1 fold | increase in whole-cell current amplitude (CaV1.2 channels [2]): 4- to 5 fold

Nc1ncnc2c1nc(Br)n2C1OC2COP(O)(=S)OC2C1O (stereo not drawn) [Rp-8-Br-cAMPS]
inhibition of nisoldipine-resistant basal current (CaV1.2 channels [1]; transgenic AID-mutant mice cardiomyocytes): did not inhibit | reversal of isoproterenol-mediated up-regulation of endogenous CaV1.2 (CaV1.2 channels [3]): ~96%

CC(C)NCC(O)c1ccc(O)c(O)c1 (stereo not drawn) [isoproterenol]
effect on relaxation of cardiomyocytes (isolated cardiomyocytes; cardiomyocytes from both pWT and AID-mutant α1C transgenic mice): enhanced relaxation | increase in fractional shortening (isolated cardiomyocytes; transgenic pWT α1C cardiomyocytes): 100% | increase in fractional shortening (isolated cardiomyocytes; β-less AID-mutant α1C cardiomyocytes): 25% | shift of Vmid (V0.5) of steady-state activation (CaV1.2 channels [1]; GFP-WT β2b cardiomyocytes, 200 nM isoproterenol): −7.0 mV | increase of peak CaV1.2 current (CaV1.2 channels [1]; GFP-WT β2 expressing cells, 200 nM isoproterenol): 1.5±0.1 fold | shift of Vmid (V0.5) of steady-state activation (CaV1.2 channels [1]; GFP-mutant β2b cardiomyocytes, 200 nM isoproterenol): −7.5 mV | increase of peak CaV1.2 current (CaV1.2 channels [1]; GFP-mutant β2 expressing cells, 200 nM isoproterenol): 1.6±0.1 fold | shift of Vmid in the hyperpolarizing direction (CaV1.2 channels [1]; transgenic pWT α1C cardiomyocytes, 200 nM isoproterenol): 4.4 mV | increase of nisoldipine-insensitive current (CaV1.2 channels [1]; transgenic pWT α1C cardiomyocytes, 200 nM isoproterenol, 300 nM nisoldipine): 1.9±0.1 fold | increase in contractility in response to isoproterenol ([4]; control mice): 75-200% | increase in contractility in response to isoproterenol ([4]; mutant mice (CaV1.2 lacking AID)): 0-25% | increase in cardiac contractility ([4]; pWT α1C hearts): 3.3 fold | increase in cardiac contractility ([4]; β-less AID-mutant transgenic hearts): 1.2 fold | phosphorylation of phospholamban at Ser16 in response to isoproterenol (phospholamban): appropriately phosphorylated

Reference: patent US11474098B2, “Drug target for preventing pathologic calcium overload in cardiomyocytes and methods of screening for same” (THE TRUSTEES OF COLUMBIA UNIVERSITY IN THE CITY OF NEW YORK, priority 2017, dated 2022)
